Here are results for 16 molecules from patent US20230365533A1, “BICYCLOHEPTANE PYRROLIDINE OREXIN RECEPTOR AGONISTS” (MERCK SHARP & DOHME CORP., priority 2021, published 2023).

SMILES strings stand for the structures.

The experiment has as its target T1, human OX2R (Homo sapiens, UniProt O43614).
T1 construct: expressed in transfected cells; host or cells: CHO (Chinese hamster ovary) cells, grown under G418 selection
T1 sequence (O43614 1-444): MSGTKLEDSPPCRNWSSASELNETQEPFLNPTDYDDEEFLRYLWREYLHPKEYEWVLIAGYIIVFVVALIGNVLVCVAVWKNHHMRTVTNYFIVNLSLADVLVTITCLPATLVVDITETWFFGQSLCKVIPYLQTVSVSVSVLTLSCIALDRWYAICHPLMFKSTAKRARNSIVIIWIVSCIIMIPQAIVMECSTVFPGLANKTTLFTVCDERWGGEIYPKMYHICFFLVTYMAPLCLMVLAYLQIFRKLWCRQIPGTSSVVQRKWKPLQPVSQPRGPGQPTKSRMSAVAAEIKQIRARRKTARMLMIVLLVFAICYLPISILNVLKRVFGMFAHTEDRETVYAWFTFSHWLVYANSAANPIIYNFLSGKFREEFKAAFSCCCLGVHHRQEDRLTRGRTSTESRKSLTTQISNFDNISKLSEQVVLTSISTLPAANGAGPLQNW
Nature of the experiment: IPOne (IP-1) orexin receptor agonist assay in CHO cells expressing human OX2R. The format is cell-based. The note with it: IPOne assay, CHO cells expressing human OX2R, 2 hours incubation; read-out: hoX2R_IP IC50. A digest of the protocol:
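CHO cells with human OX2R treated 2 h at 37 °C with 10-point ½-log compound dilutions in stimulation buffer; IP-1 accumulation read by HTRF (665/620 nm) after 60 min detection. EC50 from four-parameter fit; % effect versus a 1 uM reference agonist.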
For the molecule `C[C@@H]1C[C@H](NS(C)(=O)=O)[C@H](CO[C@H]2CC[C@@]3(c4ncc(F)cn4)C[C@H]3C2)N1C(=O)OCC1CC(F)C1` (stereo partly drawn) [Example 49, (3-fluorocyclobutyl)methyl (2R,3S,5R)-2-((((1S,3S,6R)-6-(5-fluoropyrimidin-2-yl)bicyclo[4.1.0]heptan-3-yl)oxy)methyl)-5-methyl-3-(methylsulfonamido)pyrrolidine-1-carboxylate], the concentration for half-maximal inhibition (IC50) stood at 1.1 nM.
As for `C[C@@H]1C[C@H](NS(C)(=O)=O)[C@H](CO[C@H]2CC[C@@]3(c4ncc(F)cn4)C[C@H]3C2)N1C(=O)OC[C@H]1C[C@H]1F` [Example 51, ((1R,2R)-2-fluorocyclopropyl)methyl (2R,3S,5R)-2-((((1S,3S,6R)-6-(5-fluoropyrimidin-2-yl)bicyclo[4.1.0]heptan-3-yl)oxy)methyl)-5-methyl-3-(methylsulfonamido)pyrrolidine-1-carboxylate], the half-maximal inhibitory concentration (IC50) amounted to 1.3 nM.
As to `C[C@@H]1C[C@H](NS(C)(=O)=O)[C@H](CO[C@H]2CC[C@@]3(c4ncc(F)cn4)C[C@H]3C2)N1C(=O)OCCC(F)F` [Example 52, 3,3-difluoropropyl (2R,3S,5R)-2-((((1S,3S,6R)-6-(5-fluoropyrimidin-2-yl)bicyclo[4.1.0]heptan-3-yl)oxy)methyl)-5-methyl-3-(methylsulfonamido)pyrrolidine-1-carboxylate], the IC50 came to 1.4 nM.
On to `C[C@@H]1C[C@H](NS(C)(=O)=O)[C@H](CO[C@H]2CC[C@@]3(c4ncc(F)cn4)C[C@H]3C2)N1C(=O)OCC1(F)CCC1` [Example 53, (1-fluorocyclobutyl)methyl (2R,3S,5R)-2-((((1S,3S,6R)-6-(5-fluoropyrimidin-2-yl)bicyclo[4.1.0]heptan-3-yl)oxy)methyl)-5-methyl-3-(methylsulfonamido)pyrrolidine-1-carboxylate], for which the half-inhibitory concentration (IC50) came out at 6.1 nM.
Then `C[C@@H]1C[C@H](NS(C)(=O)=O)[C@H](CO[C@H]2CC[C@@]3(c4ncc(F)cn4)C[C@H]3C2)N1C(=O)OCC(F)C1CCC1` (stereo partly drawn) [Example 54, 2-cyclobutyl-2-fluoroethyl (2R,3S,5R)-2-((((1S,3S,6R)-6-(5-fluoropyrimidin-2-yl)bicyclo[4.1.0]heptan-3-yl)oxy)methyl)-5-methyl-3-(methylsulfonamido)pyrrolidine-1-carboxylate], with 6 nM.
Consider `C[C@@H]1C[C@H](NS(C)(=O)=O)[C@H](CO[C@H]2CC[C@@]3(c4ncc(F)cn4)C[C@H]3C2)N1C(=O)OC[C@H]1[C@H](C)C1(F)F` [Example 55, ((1R,3S)-2,2-difluoro-3-methylcyclopropyl)methyl (2R,3S,5R)-2-((((1S,3S,6R)-6-(5-fluoropyrimidin-2-yl)bicyclo[4.1.0]heptan-3-yl)oxy)methyl)-5-methyl-3-(methylsulfonamido)pyrrolidine-1-carboxylate], for which the IC50 came to 1 nM.
For the molecule `C[C@@H]1C[C@H](NS(C)(=O)=O)[C@H](CO[C@H]2CC[C@@]3(c4ncc(F)cn4)C[C@H]3C2)N1C(=O)O[C@H]1COC[C@@H]1F` [Example 56, (3S,4S)-4-fluorotetrahydrofuran-3-yl (2R,3S,5R)-2-((((1S,3S,6R)-6-(5-fluoropyrimidin-2-yl)bicyclo[4.1.0]heptan-3-yl)oxy)methyl)-5-methyl-3-(methylsulfonamido)pyrrolidine-1-carboxylate], the IC50 was 9.2 nM.
With `C[C@@H]1C[C@H](NS(C)(=O)=O)[C@H](CO[C@H]2CC[C@@]3(c4ncc(F)cn4)C[C@H]3C2)N1C(=O)OCC1(C)CC1(F)F` (stereo partly drawn) [Example 57, (2,2-difluoro-1-methylcyclopropyl)methyl (2R,3S,5R)-2-((((1S,3S,6R)-6-(5-fluoropyrimidin-2-yl)bicyclo[4.1.0]heptan-3-yl)oxy)methyl)-5-methyl-3-(methylsulfonamido)pyrrolidine-1-carboxylate], the half-maximal inhibitory concentration (IC50) was 1.4 nM.
For `CC(F)COC(=O)N1[C@H](C)C[C@H](NS(C)(=O)=O)[C@@H]1CO[C@H]1CC[C@@]2(c3ncc(F)cn3)C[C@H]2C1` (stereo partly drawn) [Example 58, 2-fluoropropyl (2R,3S,5R)-2-((((1S,3S,6R)-6-(5-fluoropyrimidin-2-yl)bicyclo[4.1.0]heptan-3-yl)oxy)methyl)-5-methyl-3-(methylsulfonamido)pyrrolidine-1-carboxylate], the IC50 came out at 2 nM.
On to `C[C@@H]1C[C@H](NS(C)(=O)=O)[C@H](CO[C@H]2CC[C@@]3(c4ncc(F)cn4)C[C@H]3C2)N1C(=O)OCC1CC1(F)F` (stereo partly drawn) [Example 59, (2,2-difluorocyclopropyl)methyl (2R,3S,5R)-2-((((1S,3S,6R)-6-(5-fluoropyrimidin-2-yl)bicyclo[4.1.0]heptan-3-yl)oxy)methyl)-5-methyl-3-(methylsulfonamido)pyrrolidine-1-carboxylate], for which the IC50 turned out to be 0.71 nM.
As for `CCC(F)(F)COC(=O)N1[C@H](C)C[C@H](NS(C)(=O)=O)[C@@H]1CO[C@H]1CC[C@@]2(c3ncc(F)cn3)C[C@H]2C1` [Example 60, 2,2-difluorobutyl (2R,3S,5R)-2-((((1S,3S,6R)-6-(5-fluoropyrimidin-2-yl)bicyclo[4.1.0]heptan-3-yl)oxy)methyl)-5-methyl-3-(methylsulfonamido)pyrrolidine-1-carboxylate], the IC50 came out at 1.4 nM.
Turning to `C[C@@H]1C[C@H](NS(C)(=O)=O)[C@H](CO[C@H]2CC[C@@]3(c4ncc(F)cn4)C[C@H]3C2)N1C(=O)OCC1(F)CC1` [Example 61, (1-fluorocyclopropyl)methyl (2R,3S,5R)-2-((((1S,3S,6R)-6-(5-fluoropyrimidin-2-yl)bicyclo[4.1.0]heptan-3-yl)oxy)methyl)-5-methyl-3-(methylsulfonamido)pyrrolidine-1-carboxylate], the IC50 is 2.3 nM.
On to `C[C@@H]1C[C@H](NS(C)(=O)=O)[C@H](CO[C@H]2CC[C@@]3(c4ncc(F)cn4)C[C@H]3C2)N1C(=O)OCCF` [Example 62, 2-Fluoroethyl (2R,3S,5R)-2-((((1S,3S,6R)-6-(5-fluoropyrimidin-2-yl)bicyclo[4.1.0]heptan-3-yl)oxy)methyl)-5-methyl-3-(methylsulfonamido)pyrrolidine-1-carboxylate], for which the IC50 was found to be 1.7 nM.
Under `CC(OC(=O)N1[C@H](C)C[C@H](NS(C)(=O)=O)[C@@H]1CO[C@H]1CC[C@@]2(c3ncc(F)cn3)C[C@H]2C1)C(F)F` (stereo partly drawn) [Example 63, 1,1-Difluoropropan-2-yl (2R,3S,5R)-2-((((1S,3S,6R)-6-(5-fluoropyrimidin-2-yl)bicyclo[4.1.0]heptan-3-yl)oxy)methyl)-5-methyl-3-(methylsulfonamido)pyrrolidine-1-carboxylate] stands 0.77 nM; under `C[C@@H]1C[C@H](NS(C)(=O)=O)[C@H](CO[C@H]2CC[C@@]3(c4ncc(F)cn4)C[C@H]3C2)N1C(=O)OCC(C)(F)F` [Example 64, 2,2-difluoropropyl (2R,3S,5R)-2-((((1S,3S,6R)-6-(5-fluoropyrimidin-2-yl)bicyclo[4.1.0]heptan-3-yl)oxy)methyl)-5-methyl-3-(methylsulfonamido)pyrrolidine-1-carboxylate], 2.1 nM.
Take `C[C@@H]1C[C@H](NS(C)(=O)=O)[C@H](CO[C@H]2CC[C@@]3(c4ncc(F)cn4)C[C@H]3C2)N1C(=O)OCC(F)(F)F` [Example 65, 2,2,2-trifluoroethyl (2R,3S,5R)-2-((((1S,3S,6R)-6-(5-fluoropyrimidin-2-yl)bicyclo[4.1.0]heptan-3-yl)oxy)methyl)-5-methyl-3-(methylsulfonamido)pyrrolidine-1-carboxylate]: the IC50 came out at 1.6 nM.
